65 molecules from a melting point compilation (Tetko et al.; mined from patent text by program, amines drawn as free bases though some values may be those of a salt) can be followed below.

One may read the melting point as the temperature, or range, at which the solid turns liquid.

Bounds are passed on as bounds.

For `CCCC(CCC)c1ccc(COc2ccc(-c3csc(COc4cncc(C(=O)O)c4)n3)cc2)cc1`, the melting point is 172 to 174 °C.
Turning to `CNC(=O)[C@H]1S[C@@H](n2cnc3c(NC)nc(Cl)nc32)[C@H](O)[C@@H]1O`, the melting point is 130 to 141 °C.
`Cc1ccc(C2C(=O)CCCC2=O)c(C)c1` returned a melting point of 143 to 145 °C.
`CC(C)(Oc1ccc2c(c1)CC(NCc1ccccc1)CC2)C(=O)O` (stereo not given) came in with a melting point of 240 to 242 °C.
As for `CCc1sc2nc(C(=O)O)cn2c1C`, the figure is 243 to 245 °C; as for `O=C(C1CC1)N1CCC(C2CCc3ccc(O)cc32)CC1` (stereo not given), 75 to 82 °C.
For the molecule `CCCCCCCCCc1cnc(-c2ccc(OCc3ccc(CCCCCC)cc3)cc2)nc1`, the melting point is 51 °C.
The molecule `CCCCSc1cc(C(=O)OCC#N)cc(S(N)(=O)=O)c1Oc1ccccc1` showed a melting point of 134 to 135 °C.
For the molecule `CCOC(=O)C(OCOc1ccc(-c2ccc(Cl)cc2)cc1)(C(F)(F)F)C(F)(F)F`, the melting point is 42 to 43 °C.
The result for `CCC(CC)C(=C(C#N)c1nc[nH]n1)S(=O)(=O)c1ccc(C)cc1` reads 78 to 87 °C; that for `Oc1ccc2nccc(Cl)c2c1`, 223 °C; that for `CCCCCCC(C)(C)c1ccc(C2=CC(=O)CCC2)c(O)c1`, 122 to 123 °C.
For the molecule `COC(=O)C1=CCC2=Nc3ccccc3C2=C1C(=O)OC`, the melting point is 219 °C.
As for `COC(=O)Cc1ccc([N+](=O)[O-])cc1`, the figure is 45 to 46 °C; as for `COC(=O)c1cc(Cl)cnc1NCc1ccc(OC)cc1`, 75 to 77 °C.
The molecule `CCc1nc2c(N)nc3ccccc3c2n1CCCCNC(=O)C(C)C` registered a melting point of 155 to 156 °C.
Turning to `O=C1OC(=O)c2cc(N3C(=O)CCC3=O)ccc21`, the melting point fell in the range of 228 to 230 °C.
The result for `COC(=O)C1CCc2cc(C)c(C)cc2C1=O` (stereo not given) reads 80 to 81 °C; that for `CCCCCC(COc1ccc(C(=O)O)cc1)c1ccc2c(c1)OCCC2(C)C` (stereo not given), 91.5 to 93.3 °C; that for `O=C([C@@H](Cc1ccc(Cl)cc1)NC1CCOCC1)N1CCC(Cn2cncn2)(C2CCCCC2)CC1`, 75 °C.
Turning to `COc1cc(C2CCN(C(=O)CN)CC2)ccc1Nc1ncc2ccc(-c3ccccc3N(C)S(C)(=O)=O)n2n1`, the melting point is 106 to 119 °C.
The result for `CC(NC(CCc1ccccc1)C(=O)O)C(=O)OC(Cc1ccccc1)C(=O)O` (stereo not given) reads 199 to 200 °C.
As for `CC(C)Oc1ccc2nc3ccc(C(=O)O)cn3c(=O)c2c1`, the melting point fell in the range of 256 to 267 °C.
In the case of `CNc1cc(Oc2ccc3c(c2)OCCN3C(=O)Nc2cccc(C(F)(F)F)c2)ncn1`, the melting point is 180 °C.
`NC(=O)N1CCC(Oc2c(F)c(F)c(F)c(F)c2F)(c2ccccc2)CC1` yielded a melting point of 155 to 160 °C.
Molecule `CC(=O)OCCn1ccc(=O)c(OCc2ccccc2)c1C(OC(C)=O)c1ccc(F)cc1` (stereo not given) had a melting point of 118 to 119 °C.
`Cc1noc(NS(=O)(=O)c2ccccc2-c2ccc(CC(C)C)cc2NC=O)c1C` had a melting point of 87 to 95 °C.
The molecule `Nc1cc2nc(O)c(O)nc2c2ccccc12` registered a melting point of over 300 °C.
`COc1ccc(S(N)(=O)=O)cc1C(=O)NCC1CCCN1C1CC1` (stereo not given) had a melting point of 163 °C.
Regarding `C[C@@]1(C=O)S[C@@H]2CC(=O)N2[C@H]1C(=O)OC(c1ccccc1)c1ccccc1`, the melting point fell in the range of 112 to 113 °C.
Consider `CSCOc1cc(Cl)ccc1C=O`, for which the melting point was in the range of 67 to 68 °C.
The molecule `CCc1cc2c3c(ccc2[nH]1)OCC(CN1CC=C(c2c[nH]c4ccccc24)CC1)O3` (stereo not given) returned a melting point of 175 to 177 °C.
`C=CCOc1ccc(-c2nc3n(c2-c2ccc(OCC=C)cc2)CCS3)cc1` registered a melting point of 135 to 138 °C.
Consider `CCOC(=O)c1cnn(C)c1NCc1ccc(-c2ccccc2C#N)cc1`, for which the melting point lay within 107 to 108 °C.
Molecule `COc1cc2c(O)c(S(=O)(=O)N(C)C)cnc2cc1Cl` had a melting point of 316 to 318 °C.
The result for `C=C1CCC2(Cc3ccccc3)C3Cc4ccc(O)cc4C2(CCN3CC2CC2)C1` (stereo not given) reads 212 °C.
The result for `Nc1nc2c(c(=O)[nH]1)CCCC2` reads over 300 °C; that for `CCOCc1nc2c(N)nc3ccccc3c2n1CCC(N)=O`, over 250 °C; that for `O=C1c2cccc3c(Cl)ccc(c23)C(=O)N1O`, 234 to 236 °C.
`O=C1CCc2cc(-c3cccs3)ccc21` displayed a melting point of 148 °C.
As for `CC(=O)NC[C@H]1CN(c2ccc(C3CCN(C(=O)c4cc5ccccc5[nH]4)CC3)c(F)c2)C(=O)O1`, the figure is 223 to 225 °C.
`COc1ccc(-c2cc(C(N)=O)c(=O)n(CC=Cc3ccccc3)n2)cc1` displayed a melting point of 184 to 186 °C.
For `O=C(O)c1ccc(Oc2c(-c3ccc(O)cc3)c(C(F)(F)F)cc3ccccc23)cc1`, the melting point fell in the range of 244 to 245 °C.
As for `CCOC(=O)Cn1c(=O)c(=O)[nH]c2cc(C(F)(F)F)ccc21`, the figure is 250 to 251 °C; as for `CN(C)C(=O)c1ccc(-c2ccc(Cl)cc2)o1`, 101 to 102 °C.
Turning to `Nc1cccc(-c2ccc(CCNCc3ccc(Cl)c(Cl)c3)c3ccccc23)n1`, the melting point fell in the range of 145 to 170 °C.
In the case of `CC(C)(C)OC(=O)N(C1CCNCC1)C1CCOCC1`, the melting point is 104 °C.
In turn, `O=S(=O)(NCCCN1c2ccccc2CCc2ccc(Cl)cc21)c1ccc(OC(F)(F)F)cc1` had a melting point of 119 to 121 °C.
`NNc1ncc(-c2cccc(C(F)(F)F)c2)nn1` showed a melting point of 229 to 232 °C.
Take `COc1ccc(Cn2cc(C(=O)C(=O)NC3=CC(=O)OC3)c3ccccc32)cc1`: the melting point lay in the range of 265 to 267 °C.
In turn, `CCCC(C(=O)N(C)C)n1cc(C)c(-c2ccco2)n1` (stereo not given) came in with a melting point of 107 to 109 °C.
Molecule `CCCCCc1ccc(OC(=O)c2ccc(O)cc2Cl)cc1` came in with a melting point of 149 to 151 °C.
The result for `COC(=O)c1ncn(Cc2ccc([N+](=O)[O-])cc2)n1` reads 175 to 177 °C.
`CC(C)(C)c1cc(NC(=O)c2cccn2-c2ccc(N)cc2)cc(C(C)(C)C)c1O`: the melting point was in the range of 218 to 219 °C.
Turning to `COc1ccc(C(=O)O)c(N)c1OC`, the melting point was 183 to 184 °C.
For the molecule `CCOC(=O)c1ccc(NCC(C)Oc2ccc(Cl)c3ccccc23)cc1` (stereo not given), the melting point was found to be 122 °C.
Consider `O=C1c2ccccc2NC(c2ccc(=O)[nH]c2)N1c1ccc(F)c(C(F)(F)F)c1` (stereo not given), for which the melting point was in the range of 260 to 261 °C.
The result for `O=c1ccn([C@@H]2C=CCC[C@@H]2O)c(=O)[nH]1` (racemic) reads 203 °C.
`O=P(O)(O)C(CCCc1ccc(-c2ccccc2)cc1)P(=O)(O)O` registered a melting point of 199 to 200 °C.
`O=C1COCC2=C1C(c1ccc(F)c(Br)c1)C1=C(CCS1(=O)=O)N2` (stereo not given) came in with a melting point of over 260 °C.
The result for `COC(=O)c1ncsc1CCNC(=O)OCc1ccccc1` reads 108 to 110 °C; that for `CNc1nc(Nc2ccc(Cl)c(Cl)c2)ncc1NC(=O)c1ccccc1`, 265 to 267 °C.
Molecule `CCN(CC)CCNC(=O)c1nc(Cl)c(OC)nc1OC` displayed a melting point of 88 °C.
Turning to `O=C(O)c1ccc(-c2cc(-c3ccc(Cl)cc3)no2)cc1`, the melting point is over 300 °C.
As for `Cn1nc(N2c3ccccc3C[C@H]2C(=O)N2CCCC(C)(C)C2)ccc1=O`, the figure is 125 to 129 °C.
